Patent publication US20250122174A1 (Shenzhen Yuanli Shenwan Innovative Medicine Co., Ltd., priority 2022, published 2025)

These molecules were tested against HPK1 (Homo sapiens (Human), UniProt Q92918) (assay: HPK1 Inhibition Assay (ADP-Glo kinase assay)). Details: ATP 10 μM.
Chain of HPK1 (Q92918 1-346 limits assumed): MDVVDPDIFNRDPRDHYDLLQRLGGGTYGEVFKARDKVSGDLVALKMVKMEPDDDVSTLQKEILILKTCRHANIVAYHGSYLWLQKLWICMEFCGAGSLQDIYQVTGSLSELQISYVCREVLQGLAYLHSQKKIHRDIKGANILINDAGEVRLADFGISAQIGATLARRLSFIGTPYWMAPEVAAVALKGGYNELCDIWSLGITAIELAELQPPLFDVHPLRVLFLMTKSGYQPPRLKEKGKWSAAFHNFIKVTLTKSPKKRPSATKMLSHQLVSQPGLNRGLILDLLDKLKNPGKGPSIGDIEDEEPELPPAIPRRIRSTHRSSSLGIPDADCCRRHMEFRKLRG
Type: biochemical
Method in brief: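 ADP-Glo luminescence read-out after 1 h room-temperature kinase reaction with 10 μM ATP and 0.1 μg/ml MBP. Recombinant human HPK1 at 7.5 ng/μl; buffer 40 mM Tris pH 7.5, 20 mM MgCl2. Compounds serially diluted 5-fold over 10 points from 10 mM DMSO stock.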
`Cn1c(C2CC2)nc2c(N3CC[C@H](N)C3)c(NC(=O)c3ccc(=O)n(-c4c(F)cccc4F)n3)ccc21` [Example 97, N-{4-[(35)-3-aminopyrrolidin-1-yl]-2-cyclopropyl-1-methyl-1,3-benzodiazol-5-yl}-1-(2,6-difluorophenyl)-6-oxopyridazine-3-carboxamide] showed an IC50 of less than 100 nM.
Work on `Cn1c(C(C)(C)C)nc2c(N3CC[C@H](N)C3)c(NC(=O)c3ccc(=O)n(-c4c(F)cccc4F)n3)ccc21` [Example 98, N-{4-[(3S)-3-aminopyrrolidin-1-yl]-2-tert-butyl-1-methyl-1,3-benzodiazol-5-yl}-1-(2,6-difluorophenyl)-6-oxopyridazine-3-carboxamide] yielded an IC50 of less than 100 nM.
With `Cn1c(C(C)(C)C)nc2c(N3CC[C@@H](N)C3)c(NC(=O)c3ccc(=O)n(-c4c(F)cccc4F)n3)ccc21` [Example 99, (R)-N-(4-(3-aminopyrrolidin-1-yl)-2-(tert-butyl)-1-methyl-1H-benzo[d]imidazol-5-yl)-1-(2,6-difluorophenyl)-6-oxo-1,6-dihydropyridazine-3-carboxamide] the IC50 was less than 100 nM.
Molecule `Cn1c(C(C)(C)C)nc2c(N3CC[C@@H](O)C3)c(NC(=O)c3ccc(=O)n(-c4c(F)cccc4F)n3)ccc21` [Example 102, (R)-N-(4-(2-tert-butyl)-4-(3-hydroxypyrrolidin-1-yl)-1-methyl-1H-benzo 112 midazolezol-5-yl)-1-(2,6-difluorophenyl)-6-oxo-1,6-dihydropyridazine-3-carboxamide] has an IC50 of less than 100 nM.
Molecule `Cn1c(C(C)(C)C)nc2c(N3CCC[C@H]3CN)c(NC(=O)c3ccc(=O)n(-c4c(F)cccc4F)n3)ccc21` [Example 103] has an IC50 of less than 100 nM.
In the case of `C[C@@H]1CN(c2c(NC(=O)c3ccc(=O)n(-c4c(F)cccc4F)n3)ccc3c2nc(C(C)(C)C)n3C)C[C@@H]1N` [Example 104, N-(4-((3R,4R)-3-amino-4-methylpyrrolidin-1-yl)-2-(tert-butyl)-1-methyl-1H-benzo 112 midazolezol-5-yl)-1-(2,6-difluorophenyl)-6-oxo-1,6-dihydropyridazine-3-carboxamide], the IC50 is reported as less than 100 nM.
In the case of `Cn1c(C(C)(C)C)nc2c(N3CCC(N)(CO)C3)c(NC(=O)c3ccc(=O)n(-c4c(F)cccc4F)n3)ccc21` (stereo not shown) [Example 105, N-(4-(3-amino-3-(hydroxymethyl)pyrrolidin-1-yl)-2-(tert-butyl)-1-methyl-1H-benzo[d]imidazol-5-yl)-1-(2,6-difluorophenyl)-6-oxo-1,6-dihydropyridazine-3-carboxamide], the IC50 is reported as less than 100 nM.
In the case of `Cc1nc2c(N3CC[C@H](N)C3)c(NC(=O)c3ccc(=O)n(-c4c(F)cccc4F)n3)ccc2n1C1CCN(C)CC1` [Example 106, (S)—N-(4-(3-aminopyrrolidin-1-yl)-2-methyl-1-(1-methylpiperidin-4-yl)-1H-benzo[d]imidazol-5-yl)-1-(2,6-difluorophenyl)-6-oxo-1,6-dihydropyridazine-3-carboxamide], the IC50 is reported as less than 100 nM.
For `Cc1nc2c(N3CC[C@H](N)C3)c(NC(=O)c3ccc(=O)n(-c4c(Cl)cccc4Cl)n3)ccc2n1C` [Example 107, (S)—N-(4-(3-aminopyrrolidin-1-yl)-1,2-dimethyl-1H-benzo[d]imidazol-5-yl)-1-(2,6-dichlorophenyl)-6-oxo-1,6-dihydropyridazine-3-carboxamide], the IC50 was 100 to 1000 nM.
`CC(C)c1nc2c(N3CC[C@@H](N)C3)c(NC(=O)c3ccc(=O)n(-c4c(F)cccc4F)n3)ccc2n1C` [Example 109, (R)—N-(4-(3-aminopyrrolidin-1-yl)-2-isopropyl-1-methyl-1H-benzo[d]imidazol-5-yl)-1-(2,6-difluorophenyl)-6-oxo-1,6-dihydropyridazine-3-carboxamide] was tested, and the IC50 was less than 100 nM.
With `CC(C)c1nc2c(N3C[C@@H](C)[C@@H](N)C3)c(NC(=O)c3ccc(=O)n(-c4c(F)cccc4F)n3)ccc2n1C` [Example 110, N-(4-((3R,4R)-3-amino-4-methylpyrrolidin-1-yl)-2-isopropyl-1-methyl-1H-benzo[d]imidazol-5-yl)-1-(2,6-difluorophenyl)-6-oxo-1,6-dihydropyridazine-3-carboxamide] the IC50 was less than 100 nM.
`CC(C)c1nc2c(N3C[C@H](C)[C@@H](N)C3)c(NC(=O)c3ccc(=O)n(-c4c(F)cccc4F)n3)ccc2n1C` [Example 111, N-(4-((3R,4S)-3-amino-4-methylpyrrolidin-1-yl)-2-isopropyl-1-methyl-1H-benzo[d]imidazol-5-yl)-1-(2,6-difluorophenyl)-6-oxo-1,6-dihydropyridazine-3-carboxamide] gave an IC50 of less than 100 nM.
`CC(C)c1nc2c(N3CC4C[C@]4(N)C3)c(NC(=O)c3ccc(=O)n(-c4c(F)cccc4F)n3)ccc2n1C` (stereo partly drawn) [Example 112, N-(4-((1R)-1-amino-3-azabicyclo[3.1.0]hexan-3-yl)-2-isopropyl-1-methyl-1H-benzo[d]imidazol-5-yl)-1-(2,6-difluorophenyl)-6-oxo-1,6-dihydropyridazine-3-carboxamide] gave an IC50 of less than 100 nM.
For `CC(C)c1nc2c(N3C[C@H](N)C4(COC4)C3)c(NC(=O)c3ccc(=O)n(-c4c(F)cccc4F)n3)ccc2n1C` [Example 113, (R)-N-(4-(8-amino-2-oxa-6-azaspiro[3.4]octan-6-yl)-2-isopropyl-1-methyl-1H-benzo[d]imidazol-5-yl)-1-(2,6-difluorophenyl)-6-oxo-1,6-dihydropyridazine-3-carboxamide], the IC50 was less than 100 nM.
Molecule `CC(C)n1cc2c(N3CC[C@@H](N)C3)c(NC(=O)c3ccc(=O)n(-c4c(F)cccc4F)n3)ccc2n1` [Example 114, (R)-N-(4-(3-aminopyrrolidin-1-yl)-2-isopropyl-2H-indazol-5-yl)-1-(2,6-difluorophenyl)-6-oxo-1,6-dihydropyridazine-3-carboxamide] has an IC50 of less than 100 nM.
Molecule `CC(C)c1nc2c(N3CC[C@H](CN)C3)c(NC(=O)c3ccc(=O)n(-c4c(F)cccc4F)n3)ccc2n1C` [Example 115, (R)-N-(4-(3-(aminomethyl)pyrrolidin-1-yl)-2-isopropyl-1-methyl-1H-benzo[d]imidazol-5-yl)-1-(2,6-difluorophenyl)-6-oxo-1,6-dihydropyridazine-3-carboxamide] has an IC50 of less than 100 nM.
`CC(C)c1nc2c(N3CC[C@@H](CN)C3)c(NC(=O)c3ccc(=O)n(-c4c(F)cccc4F)n3)ccc2n1C` [Example 116, (S)-N-(4-(3-(aminomethyl)pyrrolidin-1-yl)-2-isopropyl-1-methyl-1H-benzo[d]imidazol-5-yl)-1-(2,6-difluorophenyl)-6-oxo-1,6-dihydropyridazine-3-carboxamide] showed an IC50 of less than 100 nM.
`CC(C)c1nc2c(N3CC[C@@H](O)C3)c(NC(=O)c3ccc(=O)n(-c4c(F)cccc4F)n3)ccc2n1C` [Example 117, (R)-1-(2,6-difluorophenyl)-N-(4-(3-hydroxypyrrolidin-1-yl)-2-isopropyl-1-methyl-1H-benzo[d]imidazol-5-yl)-6-oxo-1,6-dihydropyridazine-3-carboxamide] showed an IC50 of less than 100 nM.
In the case of `CC(C)c1nc2c(N3CC4[C@@H](N)[C@@H]4C3)c(NC(=O)c3ccc(=O)n(-c4c(F)cccc4F)n3)ccc2n1C` (stereo partly drawn) [Example 118, N-(4-((1R,5S,6s)-6-amino-3-azabicyclo[3.1.0]hexan-3-yl)-2-isopropyl-1-methyl-1H-benzo[d]imidazol-5-yl)-1-(2,6-difluorophenyl)-6-oxo-1,6-dihydropyridazine-3-carboxamide], the IC50 is reported as less than 100 nM.
